Biological target: T1, NLRP3 (Homo sapiens, UniProt Q96P20)
T1 construct: endogenous in cells; host or cells: THP-1 (human monocyte, PMA-differentiated, LPS-primed, nigericin-stimulated)
Assay: IC50 of NLRP3 inhibitors in reducing IL-1β secretion by THP-1 cells (PMA, LPS, nigericin; ELISA)
Format: cell-based
Settings: compound + nigericin 1 h
Procedure: Test Example 1 Experiment on Detection of IC50 of NLRP3 Inhibitors in Reducing the Level of IL-1β Secretion by THP-1 Cells
In this experiment, we use the human monocyte THP-1 to study the inhibitory activity of NLRP3 inhibitor on the secretion of IL-Iβ by cells. Human THP-1 cells are treated with crotonol-12-tetradecanoate-13-acetate (PMA) to differentiate into mature macrophage models. Then, according to the two stages of inflammasome formation in cells (assembly and activation), the cells are stimulated with lipopolysaccharide (LPS) and nigericin in turn, ultimately promoting the extracellular release of IL-1β by THP-1 cells. The first stage of inflammasome formation involves stimulating cells with LPS (lipopolysaccharide), an agonist of the Toll-like receptor TLR4, to activate the expression of the inflammasome-associated proteins NLRP3, caspase 1, and pro-IL-1β, a precursor of IL-1β. The second stage of inflammasome formation involves the addition of the potassium ion carrier nigericin, which causes a series of membrane potential changes in THP-1 cells, destroys the cell membrane structure, causes the efflux of cellular potassium ions, further stimulates the oligomerization of NLRP3 monomers to form NLRP3 oligomers, and begins to recruit ASC and pro-caspase-1 to assemble the NLRP3 inflammasome complex containing a large amount of pro-caspase-1. The pro-caspase-1 on the activated NLRP3 inflammasome is enzymatically self-activated to form a large amount of active caspase-1. The activated caspase-1 further enzymatically promotes the conversion of pro-IL-1β into mature IL-1β that can be secreted.
(1) Cell suspensions were collected. The cells were centrifuged at 1000 rpm for 4 min, the supernatant was discarded, the cells were resuspended with 1 mL of test medium, and then the cell culture medium was gently pipetted up and down with a pipette and its tip to break up the cell aggregates. After counting the cells, the THP-1 cells were resuspended with complete RPMI medium 1640 containing PMA and seeded into 96-well plates and cultured in a 37° C., 5% CO2 incubator for 72 h.
(2) The culture medium was taken out from each well with an automatic plate washer dispenser EL406 and each well was rinsed twice with PBS. To each well, 96 μL of RPMI 1640 medium containing LPS was added. The cells were cultured in a 37° C., 5% CO2 incubator for 4 h.
(3) To each well, 2 μL of the compound and 2 μL of nigericin sodium salt were added, and the final compound concentration selected was 5000 nM, 1000 nM, 200 nM, 40 nM, 8 nM, 1.6 nM, 0.32 nM, 0 nM, respectively. The cells were cultured in a 37° C., 5% CO2 incubator for 1 h.
(4) An appropriate amount of supernatant was taken out, diluted 100 times, and the content of IL-1β in the supernatant was detected using Human IL-1 beta Valukine ELISA kit.

T1 sequence (Q96P20 whole entry): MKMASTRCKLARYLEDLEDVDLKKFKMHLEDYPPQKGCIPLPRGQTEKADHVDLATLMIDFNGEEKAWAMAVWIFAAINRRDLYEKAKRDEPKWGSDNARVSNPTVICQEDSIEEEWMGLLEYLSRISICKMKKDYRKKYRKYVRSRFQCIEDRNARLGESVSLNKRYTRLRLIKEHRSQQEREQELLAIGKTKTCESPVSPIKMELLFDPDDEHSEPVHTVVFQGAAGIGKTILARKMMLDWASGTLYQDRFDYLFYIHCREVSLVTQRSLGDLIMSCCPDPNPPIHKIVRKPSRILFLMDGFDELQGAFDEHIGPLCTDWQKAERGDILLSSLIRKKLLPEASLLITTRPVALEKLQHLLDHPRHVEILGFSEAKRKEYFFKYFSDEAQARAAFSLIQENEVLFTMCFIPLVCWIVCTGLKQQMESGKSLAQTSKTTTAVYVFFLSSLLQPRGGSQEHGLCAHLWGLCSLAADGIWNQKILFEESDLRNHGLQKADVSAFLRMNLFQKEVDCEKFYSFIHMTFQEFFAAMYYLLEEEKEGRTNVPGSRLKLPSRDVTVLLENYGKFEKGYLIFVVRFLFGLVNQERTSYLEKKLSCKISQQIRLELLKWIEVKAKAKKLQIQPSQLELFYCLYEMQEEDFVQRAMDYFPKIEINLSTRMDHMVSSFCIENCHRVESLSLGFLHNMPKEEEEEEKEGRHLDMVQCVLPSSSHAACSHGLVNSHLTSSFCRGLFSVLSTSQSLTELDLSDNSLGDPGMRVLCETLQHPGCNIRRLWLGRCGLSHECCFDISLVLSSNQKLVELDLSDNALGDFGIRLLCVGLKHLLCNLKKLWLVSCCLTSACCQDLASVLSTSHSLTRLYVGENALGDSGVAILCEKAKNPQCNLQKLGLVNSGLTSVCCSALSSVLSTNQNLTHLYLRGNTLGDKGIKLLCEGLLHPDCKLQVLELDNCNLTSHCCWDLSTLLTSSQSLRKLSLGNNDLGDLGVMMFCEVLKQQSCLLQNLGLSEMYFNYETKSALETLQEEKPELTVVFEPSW

SMILES | IC50
CC#Cc1ccc2c(-c3ccc(C(F)(F)F)cc3O)nnc(N[C@@H]3COCC[C@H]3O)c2c1 [Compound 067, (3R,4R)-3-((4-(2-hydroxy-4-(trifluoromethyl)phenyl)-7-(prop-1-yn-1-yl)phthalazin-1-yl)amino)tetrahydro-2H-pyran-4-ol] | 0.066 µM
CC#Cc1ccc2c(-c3ccc(Cl)cc3O)nnc(N[C@@H]3CCC(=O)N(CCO)C3)c2c1 [Compound 076, (R)-5-((4-(4-chloro-2-hydroxyphenyl)-7-(prop-1-yn-1-yl)phthalazin-1-yl)amino)-1-(2-hydroxyethyl) piperidin-2-one] | 0.035 µM
CC#Cc1ccc2c(-c3ccc(C(F)(F)F)cc3O)nnc(N[C@@H]3CCC[C@H](O)C3)c2c1 [Compound 070] | 0.042 µM
CC(C)(C(=O)NC1CC1)N1CCC[C@@H](Nc2nnc(-c3ccc(Cl)cc3O)c3ccncc23)C1 [Compound 043, (R)-2-(3-((1-(4-chloro-2-hydroxyphenyl)pyrido[3,4-d]pyridazin-4-yl)amino)piperidin-1-yl)-N-cyclopropyl-2-methylpropionamide] | 0.034 µM
CC#Cc1ccc2c(-c3ccc(C(F)(F)F)cc3O)nnc(NCC(C)(C)O)c2c1 [Compound 069, 2-(4-((2-hydroxy-2-methylpropyl)amino)-6-(prop-1-yn-1-yl)phthalazin-1-yl)-5-(trifluoromethyl)phenol] | 0.031 µM
CC#Cc1ccc2c(-c3c(C)cc(Cl)cc3O)nnc(NCC(C)(C)O)c2c1 [Compound 024, 5-chloro-2-(4-((2-hydroxy-2-methylpropyl)amino)-6-(1-propyn-1-yl)phthalazin-1-yl)-3-methylphenol] | 0.019 µM
CC#Cc1ccc2c(-c3ccc(C(F)(F)F)cc3O)nnc(N[C@@H]3CCCN(C)C3)c2c1 [Compound 068, (R)-2-(4-((1-methylpiperidin-3-yl)amino)-6-(prop-1-yn-1-yl)phthalazin-1-yl)-5-(trifluoromethyl)phenol] | 0.039 µM
Cc1cc(Cl)cc(O)c1-c1nnc(NCC(C)(C)O)c2cc(-c3cnn(C4CC4)c3)ccc12 [Compound 039, 5-chloro-2-(6-(1-cyclopropyl-1H-pyrazol-4-yl)-4-((2-hydroxy-2-methylpropyl)amino)phthalazin-1-yl)-3-methylphenol] | 0.073 µM
NC(=O)CN1CCC[C@@H](Nc2nnc(-c3ccc(Cl)cc3O)c3ccncc23)C1 [Compound 009, (R)-2-(3-((1-(4-chloro-2-hydroxyphenyl)pyrido[3,4-d]pyridazin-4-yl)amino)piperidin-1-yl)acetamide] | 0.028 µM
C[C@H](C(N)=O)N1CCC[C@@H](Nc2nnc(-c3ccc(Cl)cc3O)c3ccncc23)C1 [Compound 017, (R)-2-((R)-3-((1-(4-chloro-2-hydroxyphenyl)pyrido[3,4-d]pyridazin-4-yl)amino)piperidin-1-yl) propionamide] | 0.017 µM
CC(C)(O)CNc1nnc(-c2ccc(Cl)cc2O)c2ccc(C#N)cc12 [Compound 001, 1-(4-chloro-2-hydroxyphenyl)-4-((2-hydroxy-2-methylpropyl)amino) phthalazin-6-carbonitrile] | 0.088 µM
C[C@@H](C(N)=O)N1CCC[C@@H](Nc2nnc(-c3ccc(Cl)cc3O)c3ccncc23)C1 [Compound 016, (S)-2-((R)-3-((1-(4-chloro-2-hydroxyphenyl)pyrido[3,4-d]pyridazin-4-yl)amino)piperidin-1-yl) propionamide] | 0.011 µM
CCn1cc(-c2ccc3c(-c4c(C)cc(Cl)cc4O)nnc(NCC(C)(C)O)c3c2)cn1 [Compound 051, 5-chloro-2-(6-(1-ethyl-1H-pyrazol-4-yl)-4-((2-hydroxy-2-methylpropyl)amino)phthalazin-1-yl)-3-methylphenol] | 0.046 µM
Cn1cc(-c2ccc3c(-c4ccc(Cl)cc4O)nnc(NCC(C)(C)O)c3c2)cn1 [Compound 004, 5-chloro-2-(4-((2-hydroxy-2-methylpropyl)amino)-6-(1-methyl-1H-pyrazol-4-yl)phthalazin-1-yl)phenol] | 0.063 µM
CC#Cc1ccc2c(-c3c(C)cc(Cl)cc3O)nnc(NCC(C)(C)O)c2c1 [Compound 024-1] | 0.108 µM
CC#Cc1ccc2c(-c3ccc(C(F)(F)F)cc3O)nnc(N[C@@H]3CCCC[C@H]3O)c2c1 [Compound 061, 2-(4-(((1R,2R)-2-hydroxycyclohexyl)amino)-6-(prop-1-yn-1-yl)phthalazin-1-yl)-5-(trifluoromethyl)phenol] | 0.023 µM
Cc1cc(Cl)cc(O)c1-c1nnc(NCC(C)(C)O)c2cc(-n3ccnn3)ccc12 [Compound 058, 5-chloro-2-(4-((2-hydroxy-2-methylpropyl)amino)-6-(1H-1,2,3-triazol-1-yl)phthalazin-1-yl)-3-methylphenol] | 0.158 µM
Cc1cc(Cl)cc(O)c1-c1nnc(NCC(C)(C)O)c2cc(-c3ccn(C)n3)ccc12 [Compound 040, 5-chloro-2-(4-((2-hydroxy-2-methylpropyl)amino)-6-(1-methyl-1H-pyrazol-3-yl)phthalazin-1-yl)-3-methylphenol] | 0.054 µM
CC#Cc1ccc2c(-c3c(O)cc(C(F)(F)F)cc3F)nnc(NC[C@H](C)O)c2c1 [Compound 071, 3-fluoro-2-(4-(((S)-2-hydroxypropyl)amino)-6-(prop-1-yn-1-yl)phthalazin-1-yl)-5-(trifluoromethyl)phenol] | 0.023 µM
CC#Cc1ccc2c(-c3ccc(Cl)cc3O)nnc(N[C@@H]3CCCN(CCO)C3=O)c2c1 [Compound 075, (R)-3-((4-(4-chloro-2-hydroxyphenyl)-7-(prop-1-yn-1-yl)phthalazin-1-yl)amino)-1-(2-hydroxyethyl) piperidin-2-one] | 0.007 µM
NC(=O)N1CCC[C@@H](Nc2nnc(-c3ccc(Cl)cc3O)c3ccncc23)C1 [Compound 008, (R)-3-((1-(4-chloro-2-hydroxyphenyl)pyrido[3,4-d]pyridazin-4-yl)amino)piperidin-1-formamide] | 0.039 µM
CC(C)(O)CNc1nnc(-c2ccc3sc(F)cc3c2O)c2ccc(C#N)cc12 [Compound 019, 1-(2-fluoro-4-hydroxybenzo[b]thiophen-5-yl)-4-((2-hydroxy-2-methylpropyl)amino) phthalazine-6-carbonitrile] | 0.111 µM
Cc1cc(Cl)cc(O)c1-c1nnc(NCC(C)(C)O)c2cc(-n3nccn3)ccc12 [Compound 028, 5-chloro-2-(4-((2-hydroxy-2-methylpropyl)amino)-6-(2H-1,2,3-triazol-2-yl)phthalazin-1-yl)-3-methylphenol] | 0.035 µM
N#Cc1ccc2c(-c3ccc(Cl)cc3O)nnc(N[C@@H]3CCCN(C(=O)C4CC4)C3)c2c1 [Compound 005, (R)-1-(4-chloro-2-hydroxyphenyl)-4-((1-(cyclopropanecarbonyl)piperidin-3-yl)amino) phthalazin-6-carbonitrile] | 0.037 µM
CC#Cc1ccc2c(-c3ccc(Cl)cc3O)nnc(N[C@@H]3CCN(CCO)C3=O)c2c1 [Compound 074, (R)-3-((4-(4-chloro-2-hydroxyphenyl)-7-(prop-1-yn-1-yl)phthalazin-1-yl)amino)-1-(2-hydroxyethyl)pyrrolidin-2-one] | 0.0072 µM
CC(C)(O)CNc1nnc(-c2ccc3sccc3c2O)c2ccc(C#N)cc12 [Compound 018, 4-((2-hydroxy-2-methylpropyl)amino)-1-(4-hydroxybenzo[b]thiophen-5-yl) phthalazine-6-carbonitrile] | 0.05 µM
Cc1cc(Cl)cc(O)c1-c1nnc(NCC(C)(C)O)c2cc(-c3cnn(C)c3)ccc12 [Compound 038] | 0.042 µM
CC#Cc1ccc2c(-c3ccc(C(F)(F)F)cc3O)nnc(NC[C@H](O)CO)c2c1 [Compound 056, (S)-3-((4-(2-hydroxy-4-(trifluoromethyl)phenyl)-7-(prop-1-yn-1-yl)phthalazin-1-yl)amino) propan-1,2-diol] | 0.018 µM
CC#Cc1ccc2c(-c3c(C)cc(Cl)cc3O)nnc(NC[C@@H](C)O)c2c1 (mixture of isomers) [Compound 035] | 0.014 µM
Oc1cc(Cl)ccc1-c1nnc(N[C@@H]2CCCC(=C(F)F)C2)c2cnccc12 [Compound 080, (R)-5-chloro-2-(4-((3-(difluoromethylene)cyclohexyl)amino)pyridin[3,4-d]pyridazin-1-yl)phenol] | 0.036 µM
